# Results reported in ChEMBL document CHEMBL3045551, “Synthesis and Acaricidal Activity of N-(1,3,4-Thiadiazol-2-yl)cyclopropanecarboxamides” (2003).
# Legend:
# Assay type in all cases: functional
# Tetranychus urticae [1] = assay: Acaricidal activity against Tetranychus urticae (two-spotted spider mite) assessed as mite mortality at 500 ppm relative to untreated control
# Tetranychus urticae [2] = assay: Acaricidal activity against Tetranychus urticae (two-spotted spider mite) assessed as mite mortality at 50 ppm relative to untreated control
# Tetranychus urticae [3] = assay: Acaricidal activity against Tetranychus urticae (two-spotted spider mite) assessed as mite mortality at 200 ppm relative to untreated control
# Tetranychus urticae [4] = assay: Acaricidal activity against Tetranychus urticae (two-spotted spider mite) assessed as mite mortality at 12.5 ppm relative to untreated control
Compound,mortality at 500 ppm (Tetranychus urticae [1]) [%],mortality at 50 ppm (Tetranychus urticae [2]) [%],mortality at 200 ppm (Tetranychus urticae [3]) [%],mortality at 12.5 ppm (Tetranychus urticae [4]) [%]
CCc1nnc(NC(=O)C2(C)CC2(Cl)Cl)s1 (stereo unspecified),0,–,–,–
Cc1nnc(NC(=O)C2(C)CC2(Cl)Cl)s1 (stereo unspecified),0,–,–,–
CC1(C(=O)Nc2nncs2)CC1(Cl)Cl (stereo unspecified),0,–,–,–
CC1(C(=O)Nc2nnc(C(F)(F)C(F)(F)C(F)(F)C(F)(F)F)s2)CC1(Cl)Cl (stereo unspecified),0,–,–,–
CC1(C(=O)Nc2nnc(C(F)(F)C(F)(F)C(F)(F)F)s2)CC1(Cl)Cl (stereo unspecified),100,100,100,80
CC1(C(=O)Nc2nnc(C(F)(F)C(F)(F)F)s2)CC1(Cl)Cl (stereo unspecified),100,100,100,30
CC1(C(=O)Nc2nnc(C(F)(F)F)s2)CC1(Br)Br (stereo unspecified),100,30,100,0
CC1(C(=O)Nc2nnc(C(F)(F)F)s2)CC1,0,–,–,–
CC(C)C1(C(=O)Nc2nnc(C(F)(F)F)s2)CC1(Cl)Cl (stereo unspecified),80,30,80,30
CCCCC1(C(=O)Nc2nnc(C(F)(F)F)s2)CC1(Cl)Cl (stereo unspecified),80,–,30,–
CCCC1(C(=O)Nc2nnc(C(F)(F)F)s2)CC1(Cl)Cl (stereo unspecified),100,80,100,0
CCC1(C(=O)Nc2nnc(C(F)(F)F)s2)CC1(Cl)Cl (stereo unspecified),100,100,100,0
O=C(Nc1nnc(C(F)(F)F)s1)C1CC1(Cl)Cl (stereo unspecified),0,–,–,–
CC1(C(=O)Nc2nnc(C(F)(F)F)s2)CC1(Cl)Cl (stereo unspecified),100,100,100,30
